The inhibition is how much of the control response was suppressed.

Drawing on patent US20260297542A1, “HERBICIDE RESISTANT PLANTS” (SYNGENTA CROP PROTECTION AG, priority 2023, published 2026), this text covers inhibition for three molecules.

Substitutions are numbered along the chain they refer to.

What all share (test): E. coli hemG growth inhibition by herbicide, AtPPO1 variant
Common to all, as to format: cell-based
Holding throughout (conditions): read-out: percentage growth inhibition

In one experiment the target is T1, AtPPO1 F214Y (Arabidopsis thaliana, UniProt P55826, F214Y).
T1 construct: expressed in transfected cells; host or cells: E. coli BL21(DE3) hemG (hemG replaced by CmR), pET24a plasmid
T1 sequence (P55826 35-537 F214Y): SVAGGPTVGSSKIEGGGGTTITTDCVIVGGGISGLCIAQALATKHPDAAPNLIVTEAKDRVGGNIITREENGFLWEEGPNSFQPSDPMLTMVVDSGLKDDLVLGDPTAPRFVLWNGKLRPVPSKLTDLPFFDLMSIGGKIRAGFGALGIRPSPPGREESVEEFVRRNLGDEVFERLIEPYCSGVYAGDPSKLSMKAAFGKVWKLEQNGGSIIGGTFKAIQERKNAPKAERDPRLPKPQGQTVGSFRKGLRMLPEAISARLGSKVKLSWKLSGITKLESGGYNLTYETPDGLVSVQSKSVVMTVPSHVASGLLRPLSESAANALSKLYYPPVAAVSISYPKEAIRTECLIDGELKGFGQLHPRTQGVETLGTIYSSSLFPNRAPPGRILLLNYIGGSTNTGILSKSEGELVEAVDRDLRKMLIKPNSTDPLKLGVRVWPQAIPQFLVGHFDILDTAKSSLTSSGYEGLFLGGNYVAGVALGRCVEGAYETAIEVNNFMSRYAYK
The method, boiled down: (§1)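 E. coli BL21(DE3) ΔhemG::CmR complemented by AtPPO1 variants (pET24a, T7, E. coli codon-optimised); TB + 0.1 mM IPTG, 1:100 inoculum; 6.25 ppm herbicide 0/E or 0.78 ppm herbicide B vs DMSO; 24 h, 37° C, 250 rpm; OD600 at 24 h → % growth inhibition.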

For a further experiment, the target named is T2, AtPPO1 R449K (Arabidopsis thaliana, UniProt P55826, R449K).
T2 construct: expressed in transfected cells; host or cells: E. coli BL21(DE3) hemG, pET24a plasmid
T2 sequence (P55826 35-537 R449K): T1 sequence (P55826 35-537 F214Y) with Y180F, R415K
The method, boiled down: as §1

A further experiment has as its target T3, AtPPO1 Y219S (Arabidopsis thaliana, UniProt P55826, Y219S).
T3 construct: expressed in transfected cells; host or cells: E. coli BL21(DE3) hemG (hemG replaced by CmR), pET24a plasmid
T3 sequence (P55826 35-537 Y219S): T1 sequence (P55826 35-537 F214Y) with Y180F, Y185S
The method in brief: as §1

The next experiment concerns the target T4, AtPPO1 Y362F (Arabidopsis thaliana, UniProt P55826, Y362F).
T4 construct: expressed in transfected cells; host or cells: E. coli BL21(DE3) hemG (pET24a, T7 promoter)
T4 sequence (P55826 35-537 Y362F): T1 sequence (P55826 35-537 F214Y) with Y180F, Y328F
The method in brief: as §1

For `C#CCN1C(=O)C(F)(F)Oc2cc(F)c(-n3c(=O)n(C)c(=S)n(C)c3=O)cc21` [Herbicide B, trifludimoxazin], the inhibition at 0.78 ppm at AtPPO1 F214Y was determined as 26%; on AtPPO1 R449K, 35%; at AtPPO1 Y219S, 28%; at AtPPO1 Y362F, 34%.

Turning to `CCOC(=O)[C@]1(C)CC(c2cc(-n3c(=O)n(C)c(=S)n(C)c3=O)c(F)cc2Cl)=NO1` [Herbicide D, ethyl (5S)-3-[2-chloro-5-(3,5-dimethyl-2,6-dioxo-4-thioxo-1,3,5-triazinan-1-yl)-4-fluoro-phenyl]-5-methyl-4H-isoxazole-5-carboxylate], the inhibition at 6.25 ppm on AtPPO1 F214Y is 34%; at AtPPO1 R449K, 37%; at AtPPO1 Y219S it was 33%; on AtPPO1 Y362F, 13%.

As for `CC(C)N(C)S(=O)(=O)NC(=O)c1cc(-n2c(=O)cc(C(F)(F)F)n(C)c2=O)c(F)cc1Cl` [Herbicide E, saflufenacil], the inhibition at 6.25 ppm stood at 63% at AtPPO1 F214Y, 68% on AtPPO1 R449K, 49% on AtPPO1 Y219S and 43% on AtPPO1 Y362F.
